The record followed here is ChEMBL document CHEMBL1129024, “Design, synthesis, and antitumor activity of bicyclic and isomeric analogues of illudin M” (Bioorg Med Chem Lett, 1996).

As a reminder, the IC50 is the concentration needed to halve the response being measured.

Holding throughout (format): functional, cell-based
In one assay the test system is SW480. In words: In vitro antitumor activity against SW480 (colon) human tumor cell lines.
The test system of another assay is A549. Nature of the assay: In vitro antitumor activity against A549 (lung) human tumor cell lines.
For a further assay, the system named is MDA-MB-231. Nature of the assay: In vitro antitumor activity against MB231 (breast) human tumor cell lines.
A further assay deals with A-375. Nature of the assay: In vitro antitumor activity against A375 (melanoma) human tumor cell lines.

Regarding `C/C=C1\C=C(C)C2(CC2)C(C)(O)C1=O` (stereo not given), the IC50 was 0.12 µM in the assay on SW480, 0.15 µM in the assay with A549, 0.11 µM with MDA-MB-231 and 0.004 µM with A-375.

`CC1=C/C(=C\C#CCCO)C(=O)C(C)(O)C12CC2` (stereo not given): the IC50 in the assay with SW480 is 4 µM; with A549 it was 3 µM; with MDA-MB-231, 2 µM; in the assay with A-375 it was 2 µM.

Turning to `CC1=C/C(=C\c2cccs2)C(=O)C(C)(O)C12CC2` (stereo not given), the IC50 in the assay on SW480, with A549, in the assay with MDA-MB-231 and with A-375 was > 10 µM in each case.

As to `C=C/C=C1\C=C(C)C2(CC2)C(C)(O)C1=O` (stereo not given), the IC50 in the assay on SW480 came out at 0.18 µM; in the assay on A549 it was 0.002 µM; in the assay with MDA-MB-231, 0.028 µM; with A-375, 0.018 µM.

As to `C=C1C2=C(CC(C)(C)C2=O)C(=O)C(C)(O)C12CC2` (stereo not given), the IC50 came to 0.06 µM in the assay with SW480, 0.25 µM in the assay with A549, 2 µM in the assay with MDA-MB-231 and 0.032 µM in the assay on A-375.

Regarding `CC1=C/C(=C\C(C)C)C(=O)C(C)(O)C12CC2` (stereo not given), the IC50 in the assay on SW480 came to 0.03 µM; in the assay with A549 it was 0.11 µM; with MDA-MB-231 it was 0.3 µM; in the assay on A-375 it was 0.13 µM.

Regarding `CC1=C/C(=C\Cl)C(=O)C(C)(O)C12CC2` (stereo not given), the IC50 in the assay with SW480 is 0.03 µM; in the assay with A549 it was 0.2 µM; in the assay with MDA-MB-231, 0.3 µM; with A-375 it was 1 µM.

For `CC1=C/C(=C\c2ccccc2)C(=O)C(C)(O)C12CC2` (stereo not given), the IC50 in the assay on SW480 was 2.5 µM; with A549, 1.5 µM; in the assay with MDA-MB-231, 4 µM; with A-375, > 10 µM.

Turning to `CC1=C2C(=O)C(C)(C)C=C2C(=O)[C@](C)(O)C12CC2` [DEHYDROILLUDIN M], the 50% inhibitory concentration (IC50) came to 0.3 µM in the assay on SW480, 0.2 µM with A549, 0.45 µM with MDA-MB-231 and 0.55 µM in the assay on A-375.

For the compound `COc1cccc2c1C(=O)c1c(O)c3c(c(O)c1C2=O)C[C@@](O)(C(=O)CO)C[C@@H]3O[C@H]1C[C@H](N)[C@H](O)[C@H](C)O1` [DOXORUBICIN], the IC50 came to 0.06 µM in the assay on SW480, 0.12 µM with A549, 0.15 µM with MDA-MB-231 and 0.07 µM in the assay with A-375.
